# Assay results as given in paper PMC3107525 (The Journal of neuroscience : the official journal of the …, 2011).
# Read-outs that look alike come from different tables or passages of the source.
# Assays:
# [1] = biological target: T1, hSERT WT (Homo sapiens, UniProt P31645)
# [2] = biological target: T2, hSERT Y95F (Homo sapiens, UniProt P31645, Y95F)
# [3] = biological target: DAT (Rattus norvegicus, UniProt P23977); assay type: in vivo; settings: 10 mg/kg i.p., dorsal striatum
# [4] = biological target: hSERT Y95F/C109A/I179C (Homo sapiens, UniProt P31645, C109A/I179C/Y95F); assay: Uptake with MTSET-sensitive mutant in COS-7 cells; assay type: cell-based
# [5] = tested on: NCCc1ccc(O)c(O)c1; assay: cells, lysate or membranes; settings: other: substrate uptake, COS-7, 96 well plates, 10 min, room temperature; pH 7.4
# [6] = biological target: SERT (Rattus norvegicus, UniProt P31652); assay type: in vivo; settings: exogenously applied, anesthetized rats, mean ± SEM, n = 10
# SERT, sequence (P31652 whole entry): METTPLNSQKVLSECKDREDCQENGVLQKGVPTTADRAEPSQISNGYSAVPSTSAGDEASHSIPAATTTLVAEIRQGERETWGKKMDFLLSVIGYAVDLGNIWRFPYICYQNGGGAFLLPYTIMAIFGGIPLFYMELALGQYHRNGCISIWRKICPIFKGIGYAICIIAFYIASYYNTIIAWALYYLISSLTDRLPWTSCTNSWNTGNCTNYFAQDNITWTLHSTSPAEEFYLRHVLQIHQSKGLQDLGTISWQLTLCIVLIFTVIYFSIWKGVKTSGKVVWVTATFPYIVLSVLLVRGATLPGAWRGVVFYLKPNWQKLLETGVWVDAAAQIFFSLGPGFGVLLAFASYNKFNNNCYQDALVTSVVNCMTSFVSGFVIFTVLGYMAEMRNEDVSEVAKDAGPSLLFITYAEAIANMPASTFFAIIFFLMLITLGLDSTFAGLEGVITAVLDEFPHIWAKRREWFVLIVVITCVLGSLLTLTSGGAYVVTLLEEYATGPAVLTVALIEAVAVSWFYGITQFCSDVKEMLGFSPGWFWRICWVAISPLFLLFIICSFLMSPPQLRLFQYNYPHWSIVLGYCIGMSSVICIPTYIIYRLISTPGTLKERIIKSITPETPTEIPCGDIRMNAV
# [7] = biological target: T1, hSERT WT; settings: 20 μM 5HT or 2 mM DA extracellular
# [8] = biological target: T1, hSERT WT; settings: gluconate substituted for Cl-
# [9] = biological target: T1, hSERT WT; settings: 0.2-0.5 nM [125I]RTI-55, 1 hour on ice
# [10] = biological target: T2, hSERT Y95F; remark: listed apart in the source
# [11] = biological target: hSERT D98G (Homo sapiens, UniProt P31645, D98G)
# [12] = biological target: T1, hSERT WT; remark: listed apart in the source
# [13] = biological target: T1, hSERT WT; remark: listed apart in the source
# [14] = read-out: IC50 for inhibition of [3H]5HT uptake
# [15] = read-out: IC50 for inhibition of [3H]DA uptake
# [16] = substrate uptake, COS-7, 96 well plates, 10 min, room temperature
# DAT, sequence (P23977 whole entry): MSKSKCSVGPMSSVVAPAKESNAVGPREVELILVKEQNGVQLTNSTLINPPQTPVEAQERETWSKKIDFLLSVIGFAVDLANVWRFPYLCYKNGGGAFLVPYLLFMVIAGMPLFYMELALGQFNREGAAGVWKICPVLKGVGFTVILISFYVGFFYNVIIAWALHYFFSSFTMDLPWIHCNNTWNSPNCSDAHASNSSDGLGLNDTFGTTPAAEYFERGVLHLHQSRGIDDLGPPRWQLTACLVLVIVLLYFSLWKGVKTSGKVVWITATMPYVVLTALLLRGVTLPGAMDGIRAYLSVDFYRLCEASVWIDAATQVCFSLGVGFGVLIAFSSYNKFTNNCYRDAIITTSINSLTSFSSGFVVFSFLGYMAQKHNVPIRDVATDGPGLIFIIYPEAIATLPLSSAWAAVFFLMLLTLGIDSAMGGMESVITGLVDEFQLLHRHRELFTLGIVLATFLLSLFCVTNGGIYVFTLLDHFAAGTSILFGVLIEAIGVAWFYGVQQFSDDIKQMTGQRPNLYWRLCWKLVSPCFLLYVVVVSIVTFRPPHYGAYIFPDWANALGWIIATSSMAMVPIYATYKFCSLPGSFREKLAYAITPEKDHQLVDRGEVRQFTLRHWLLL
compound,measurement,setting,value
"CNC(C)Cc1ccc2c(c1)OCO2 (centres unmarked) [MDMA, 3,4-methylenedioxymethamphetamine]",IC50,[1]; [14],4.4 ± 0.84 µM
same,IC50,[1]; [15],2.7 ± 0.33 µM
same,IC50,[2]; [14],3.1 ± 0.43 µM
same,IC50,[2]; [15],0.94 ± 0.11 µM
"CN(C)CCCC1(c2ccc(F)cc2)OCc2cc(C#N)ccc21 (centres unmarked) [Citalopram, citalopram]",effect on DA clearance time (T80),[3],unaffected
"C[N+](C)(C)CCSS(C)(=O)=O [MTSET, [2-(trimethylammonium)ethyl] methane-thiosulfonate]",decrease of 5HT uptake activity,"[4]; 10 mM MTSET, 10 min",> 90%
hSERT WT (Homo sapiens),Km,[5],78 ± 5.7 µM
"NCCc1c[nH]c2ccc(O)cc12 [5HT, serotonin]",baseline clearance time (T80),[6],73.4 ± 8.3 s
"NCCc1ccc(O)c(O)c1 [DA, dopamine]",efflux of preloaded [3H]5HT,[7],substantial and comparable efflux
same,efflux of preloaded [3H]DA,[7],no significant efflux
same,apparent affinity for Cl- in substrate transport,[8],~ 100 mM
same,baseline clearance time (T80),[6],79.5 ± 4.1 s
same,relation of 5HT and DA binding sites,[9],mutually exclusive
same,Vmax,[10]; [16],2.4 ± 0.52 pmol/well/min
same,Vmax for DA transport relative to Vmax for 5HT transport,[10]; times higher,4–5 times
same,DA uptake activity,[11],no DA uptake activity
same,mode of inhibition of 5HT uptake,[12],competitive inhibitor
same,transport of DA,[4]; before or after MTSET treatment,< 2%
same,Vmax,[13]; [16],2.7 ± 0.65 pmol/well/min
same,Vmax for DA transport relative to Vmax for 5HT transport,[13]; times higher,4–5 times
